Here are results for 5 molecules from US9757353B2, “Methods of inducing anesthesia” (THE REGENTS OF THE UNIVERSITY OF CALIFORNIA, priority 2012, dated 2017).

Series [1] deals with some inhibitory potassium channels. The series is described as follows: Inhibitory potassium channel modulation in vitro. Format: cell-based.
For series [2], the target named is GABAA (α1β2γ2s) receptors (UniProt P14867+P18508+P63138). Put plainly: Oocyte two-electrode voltage clamp, GABAA receptor currents. Conditions: saturating aqueous concentration. A general note: Two-electrode voltage clamp is typically applied to oocytes expressing channels or transporters.
Chain of GABAA (α1β2γ2s) receptors (P14867 28-456): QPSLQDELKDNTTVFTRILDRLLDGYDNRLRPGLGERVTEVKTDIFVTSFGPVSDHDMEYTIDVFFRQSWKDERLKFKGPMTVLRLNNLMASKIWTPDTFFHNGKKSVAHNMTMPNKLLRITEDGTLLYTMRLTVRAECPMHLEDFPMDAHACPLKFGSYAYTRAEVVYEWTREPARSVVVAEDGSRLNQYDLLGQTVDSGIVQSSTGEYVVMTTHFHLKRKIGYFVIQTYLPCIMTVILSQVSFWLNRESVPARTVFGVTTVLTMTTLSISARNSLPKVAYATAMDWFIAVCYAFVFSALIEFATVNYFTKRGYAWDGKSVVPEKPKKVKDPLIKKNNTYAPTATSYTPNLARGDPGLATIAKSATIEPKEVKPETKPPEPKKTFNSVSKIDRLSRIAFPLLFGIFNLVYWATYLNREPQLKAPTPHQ
Chain of GABAA (α1β2γ2s) receptors (P63138 25-474 limits assumed): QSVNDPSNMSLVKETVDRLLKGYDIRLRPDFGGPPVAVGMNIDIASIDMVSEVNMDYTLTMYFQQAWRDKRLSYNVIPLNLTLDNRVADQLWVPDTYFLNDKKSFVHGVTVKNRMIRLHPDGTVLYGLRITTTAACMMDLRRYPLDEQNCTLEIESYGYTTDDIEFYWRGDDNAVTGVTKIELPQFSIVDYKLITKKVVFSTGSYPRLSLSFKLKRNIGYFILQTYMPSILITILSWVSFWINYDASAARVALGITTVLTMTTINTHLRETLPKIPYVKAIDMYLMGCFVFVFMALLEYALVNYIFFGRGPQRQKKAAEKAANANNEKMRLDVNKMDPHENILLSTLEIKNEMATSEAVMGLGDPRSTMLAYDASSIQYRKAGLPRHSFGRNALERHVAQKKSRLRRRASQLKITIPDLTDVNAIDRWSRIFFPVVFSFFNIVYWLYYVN
Chain of GABAA (α1β2γ2s) receptors (P18508 39-466): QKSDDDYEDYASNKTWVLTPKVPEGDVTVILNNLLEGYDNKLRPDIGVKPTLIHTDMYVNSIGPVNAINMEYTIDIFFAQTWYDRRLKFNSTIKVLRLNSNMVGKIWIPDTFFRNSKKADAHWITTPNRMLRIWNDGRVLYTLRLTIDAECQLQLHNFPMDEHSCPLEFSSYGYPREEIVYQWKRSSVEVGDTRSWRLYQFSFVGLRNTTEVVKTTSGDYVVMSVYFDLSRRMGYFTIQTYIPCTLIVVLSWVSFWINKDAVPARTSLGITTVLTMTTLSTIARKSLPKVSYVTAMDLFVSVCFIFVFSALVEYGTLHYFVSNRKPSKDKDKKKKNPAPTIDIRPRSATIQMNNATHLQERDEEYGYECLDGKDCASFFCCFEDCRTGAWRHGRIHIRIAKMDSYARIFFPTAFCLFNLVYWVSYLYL
Procedure: GABAA receptors were expressed using clones for the human GABAA α1 and the rat GABAA β2 and γ2s subunits in pCIS-II vectors. […] These plasmid ratios ensured incorporation of the γ-subunit into expressed receptors, as confirmed via receptor potentiation to 10 μM chlordiazepoxide or insensitivity to 10 μM zinc chloride during co-application with GABA. In separate oocytes, glutamate receptors were expressed using rat NMDA NR1 clones in a pCDNA3 vector and rat NMDA NR2A clones in a Bluescript vector. RNA encoding each subunit was prepared using a commercial transcription kit (T7 mMessage mMachine, Ambion, Austin, Tex.) was mixed in a 1:1 ratio, and 1-10 ng of total RNA was injected into oocytes and studied 1-2 days later.
Oocytes were studied in a 250 μL linear-flow perfusion chamber with solutions administered by syringe pump at 1.5 ml/min with gastight glass syringes and Teflon tubing. Oocyte GABAA currents were studied using standard two-electrode voltage clamping techniques at a holding potential of 80 mV using a 250 μL channel linear-flow perfusion chamber with solutions administered by syringe pump at 1.5 mL/min.
After FR perfusion for 5 min, oocytes were exposed to 30 sec FR-GABA followed by another 5 min FR washout; this was repeated until stable GABAA-elicited peaks were obtained. Next, FR containing a saturated solution of the study drug (Table 2)—or for gaseous study compounds a vapor pressure equal to 90% of barometric pressure with balance oxygen—was used to perfuse the oocyte chamber for 2 min followed by perfusion with a FR-GABA solution containing the identical drug concentration for 30 sec.
[formula] where ID and IB were the peak currents measured during agonist+drug and agonist baseline perfusions, respectively. When present, direct receptor activation by a drug was similarly calculated as a percent of the agonist response. Average current responses for each drug and channel were described by mean±SD. A lack of receptor response (cut-off) was defined as a <10% change from baseline current that was statistically indistinguishable from zero using a two-tailed Student t-test.
Series [3] has as its system glycine. Put plainly: Glycine receptor modulation in vitro. The class given is cell-based.
The target in series [4] is T1, NMDA (NR1/NR2A) receptors (Rattus norvegicus, UniProt P35439+Q00959).
T1 construct: expressed in transfected cells; host or cells: Xenopus laevis oocytes, injected with in vitro transcribed RNA (1:1), clones a gift from Dr. R. A. Harris
T1 sequence (Q00959 23-1464, other chains not shown): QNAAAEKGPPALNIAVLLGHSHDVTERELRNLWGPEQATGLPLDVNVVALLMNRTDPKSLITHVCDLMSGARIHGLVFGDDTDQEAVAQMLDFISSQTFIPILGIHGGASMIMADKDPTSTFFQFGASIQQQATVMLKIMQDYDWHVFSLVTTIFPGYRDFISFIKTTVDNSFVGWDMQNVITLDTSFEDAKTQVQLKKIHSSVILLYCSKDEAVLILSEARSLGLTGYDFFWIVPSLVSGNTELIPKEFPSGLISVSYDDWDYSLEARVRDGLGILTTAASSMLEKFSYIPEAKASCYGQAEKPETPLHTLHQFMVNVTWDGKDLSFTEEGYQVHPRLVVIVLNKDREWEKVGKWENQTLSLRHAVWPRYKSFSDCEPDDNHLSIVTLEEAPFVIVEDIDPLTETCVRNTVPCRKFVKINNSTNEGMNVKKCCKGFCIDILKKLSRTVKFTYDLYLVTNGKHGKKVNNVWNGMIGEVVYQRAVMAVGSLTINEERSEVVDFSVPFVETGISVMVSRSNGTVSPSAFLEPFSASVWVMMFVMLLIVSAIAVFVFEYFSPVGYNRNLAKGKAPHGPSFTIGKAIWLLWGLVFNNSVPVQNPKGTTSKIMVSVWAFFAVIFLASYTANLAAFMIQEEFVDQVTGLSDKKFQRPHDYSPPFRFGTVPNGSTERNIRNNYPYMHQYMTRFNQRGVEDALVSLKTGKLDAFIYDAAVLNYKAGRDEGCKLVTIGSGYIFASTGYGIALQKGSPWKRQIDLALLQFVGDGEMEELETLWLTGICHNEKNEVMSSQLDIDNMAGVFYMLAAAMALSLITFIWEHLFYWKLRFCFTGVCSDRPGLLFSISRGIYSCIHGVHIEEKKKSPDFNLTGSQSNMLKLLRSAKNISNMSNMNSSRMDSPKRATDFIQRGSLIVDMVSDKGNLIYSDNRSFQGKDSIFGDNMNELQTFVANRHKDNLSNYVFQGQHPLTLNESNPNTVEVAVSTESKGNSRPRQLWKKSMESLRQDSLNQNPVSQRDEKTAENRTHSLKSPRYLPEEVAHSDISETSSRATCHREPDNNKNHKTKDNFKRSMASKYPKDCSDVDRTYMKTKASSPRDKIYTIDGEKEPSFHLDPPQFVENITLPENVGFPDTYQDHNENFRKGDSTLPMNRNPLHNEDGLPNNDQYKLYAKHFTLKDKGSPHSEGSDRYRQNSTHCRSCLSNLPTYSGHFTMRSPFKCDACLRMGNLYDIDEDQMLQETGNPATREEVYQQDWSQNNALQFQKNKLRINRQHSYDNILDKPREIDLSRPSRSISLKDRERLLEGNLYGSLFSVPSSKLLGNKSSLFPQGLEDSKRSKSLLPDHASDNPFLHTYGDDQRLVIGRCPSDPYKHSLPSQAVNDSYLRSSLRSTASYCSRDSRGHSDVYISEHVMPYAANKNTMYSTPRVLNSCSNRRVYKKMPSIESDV
The series is described as follows: Oocyte two-electrode voltage clamp, NMDA receptor currents. Format: cell-based. Conditions: saturating aqueous concentration. An excerpt:
Methods: GABAA (α1β2γ2s) or NMDA (NR1/NR2A) receptors were expressed in oocytes and studied using standard two-electrode voltage clamp techniques. Hydrocarbons from 14 different organic functional groups were studied at saturated concentrations, and compounds within each group differed only by the carbon number at the ω-position or within a saturated ring. An effect on GABAA or NMDA receptors was defined as a 10% or greater reversible current change from baseline that was statistically different from zero.
(§1) Oocyte Collection and Receptor Expression. An ovary from tricaine-anesthetized Xenopus laevis frogs was surgically removed using a protocol approved by the Institutional Animal Care and Use Committee at the University of California, Davis. Following manual disruption of the ovarian lobule septae, the ovary was incubated in 0.2% Type I collagenase (Worthington Biochemical, Lakewood, N.J.) to defolliculate oocytes which were washed and stored in fresh and filtered modified Barth's solution composed of 88 mM NaCl, 1 mM KCl, 2.4 mM NaHCO3, 20 mM HEPES, 0.82 mM MgSO4, 0.33 mM Ca(NO3)2, 0.41 mM CaCl2, 5 mM sodium pyruvate, gentamycin, penicillin, streptomycin, and corrected to pH=7.4. All salts and antibiotics were A.C.S. grade (Fisher Scientific, Pittsburgh, Pa.).
Clones used were provided as a gift from Dr. R. A. Harris (University of Texas, Austin) and were sequenced and compared to references in the National Center for Biotechnology Information database to confirm the identity of each gene. GABAA receptors were expressed using clones for the human GABAA α1 and the rat GABAA β2 and γ2s subunits in pCIS-II vectors. […] In separate oocytes, glutamate receptors were expressed using rat NMDA NR1 clones in a pCDNA3 vector and rat NMDA NR2A clones in a Bluescript vector. RNA encoding each subunit was prepared using a commercial transcription kit (T7 mMessage mMachine, Ambion, Austin, Tex.) was mixed in a 1:1 ratio, and 1-10 ng of total RNA was injected into oocytes and studied 1-2 days later.
NMDA Receptor Electrophysiology Studies. […] Briefly, baseline perfusion solutions were the same as for GABAA with the substitution of equimolar BaCl2 for calcium salts and the addition of 0.1 mM EGTA; this constituted barium frog Ringer's solution (BaFR). Agonist solutions for NMDA studies also contained 0.1 mM glutamate (E) and 0.01 mM glycine (G) to constitute a BaFREG solution.
The syringe pump and perfusion chamber apparatus as well as the clamp holding potential and baseline-agonist exposure protocols were identical to that described for the GABAA studies. The same test compounds, concentrations, and preparative methods were used in NMDA voltage clamp studies as in the GABAA voltage clamp studies (Table 2).
Response Calculations and Data Analysis. Modulating drug responses were calculated as the percent of the control (baseline) peak as follows:
[formula] where ID and IB were the peak currents measured during agonist+drug and agonist baseline perfusions, respectively. When present, direct receptor activation by a drug was similarly calculated as a percent of the agonist response. […] A lack of receptor response (cut-off) was defined as a <10% change from baseline current that was statistically indistinguishable from zero using a two-tailed Student t-test.

Series [5] relates to NMDA-dependent CA1 neurons. The note with it: hippocampus; cited from earlier work.
Series [6] concerns 3-transmembrane (TM3) and 4-transmembrane (TM4) receptors. Conditions: cited from earlier work.
The subject of series [7] is GABAA-dependent pyramidal cells. Conditions: hippocampus; cited from earlier work.
The test system of series [8] is ND4 mice. Put plainly: Loss of righting reflex in ND4 mice. Format: in vivo. Conditions: after 2 hours of anesthesia. Here is the method: HFCP caused loss of righting reflex (a surrogate measure of unconsciousness) in 4 healthy ND4 mice at 1.0±0.2 (mean±SD) percent of 1 atmosphere. […] After 2 hours of anesthesia, mice were awake after about 1 minute of discontinuing HFCP administration. […] Despite a lack of NMDA receptor effects, 1,1,2,2,3,3,4-heptafluorocyclopentane is able to produce the desired pharmacologic endpoints of unconsciousness and immobility that appears similar to desirable effects produced by conventional agents.

Series [9] concerns heart, lung, kidney and liver tissues. Put plainly: Histopathology after anesthesia. Conditions: tissues collected 2 days later. The class given is in vivo, mice.
Series [10] addresses GABAA receptor. Conditions: read-out: EC50, positive modulator of GABAA receptor currents; cited from earlier work.
For series [11], the system named is oocyte. The series is described as follows: Cytotoxicity during oocyte electrophysiology studies. Format: cell-based, Xenopus laevis. Here is the method: These compounds are not preferred. Other structures previously known to be highly toxic to animals or humans (such as silanes and boranes) are not preferred.
as §1

One may read the EC50 as the concentration giving half of the maximal effect.

Molecules are shown by their SMILES.

On to `FC1C(F)C(F)(F)C(F)(F)C1(F)F` (stereo not shown) [1,1,2,2,3,3,4,5-octafluorocyclopentane], for which the “inhibitory potassium channel modulation (in words)” value in [1] was “potentiates”. Also, the “GABAA receptor modulation (in words)” value in series [2] was “potentiates GABAA”. The “glycine receptor modulation (in words)” value in [3] was “potentiates”. Also, the “NMDA receptor modulation (in words)” value in series [4] was “no effect on NMDA receptors”.

For the molecule `FC1(F)C(F)(F)C(F)(Cl)C1(F)Cl` (stereo not shown) [1,2-dichlorohexafluorocyclobutane], the “depression of NMDA-dependent CA1 neurons” value in series [5] is on record as “fail to depress”. Moreover, the “ion channel modulation (TM3 / TM4 receptors), FIG. 2” value in series [6] is “modulate 4-transmembrane receptors (TM4) or neither receptor type”. The “depression of GABAA-dependent pyramidal cells” value in series [7] is recorded as “fail to depress”.

With `FC1CC(F)(F)C(F)(F)C1(F)F` (stereo not shown) [HFCP, 1,1,2,2,3,3,4-heptafluorocyclopentane], the “inhibitory potassium channel modulation (in words)” value in series [1] was “potentiates”. Moreover, in [8], the “time to awake after discontinuing administration” value is “about 1 minute”. In addition, in series [2], the “GABAA receptor modulation (in words)” value is “potentiates GABAA”. The “histopathology of heart, lung, kidney and liver” value in [9] is on record as “no evidence of inflammation or toxicity”. Further, the “glycine receptor modulation (in words)” value in series [3] is “potentiates”. In series [4], the “NMDA receptor modulation (in words)” value was “no effect on NMDA receptors”.

Turning to `CC(C)c1cccc(C(C)C)c1O` [Propofol], the “ion channel modulation (TM3 / TM4 receptors), FIG. 2” value in [6] is “modulate both 3-transmembrane (TM3) and TM4 receptors”. For the same molecule, in series [10], the EC50 is around 60 µM.

For `C1CCNC1` [pyrrolidine], the “cytotoxicity during oocyte electrophysiology studies” value in [11] is “caused cytotoxicity”.
